Values after ≈ are worked out from the molar mass of the structure shown. Like-named read-outs stand apart in the source and are kept apart here.
Experiments:
Experiment in all cases: EUCAST micro broth dilution in vitro susceptibility testing
Assay type in all cases: cell-based
[1] = tested on: Fusarium Proliferatum (clinical sample)
Description: (§1) The antifungal activity of a composition comprising Poly-(hexamethylene-guanidium chloride) and N,N-didecyl-N-methyl-poly(oxyethyl) ammonium propionate in a ratio of about 1:1 with respect to the molar amount was tested on wild type Aspergillus fumigatus (ATCC 204305) and azole resistant strains (TR 34/L98H and TR46/Y121F/T289A) as well as one clinical sample of Fusarium proliferatum and one clinical sample of Scedosporium Apiospermum was evaluated by means of EUCAST micro broth dilution1. This test method is currently recognized as the gold standard for in vitro susceptibility testing of filamenteus fungi. The test drug was diluted 1:30 in RPMI 1640 in order to obtain a max test concentration of 100 PPM. The test was performed three times for each test strain. The test drug was tested in the concentration range from 1-100 ppm.

[2] = tested on: Aspergillus fumigatus TR34/L98H (azole resistant)
Description: as §1

[3] = tested on: Scedosporium Apiospermum (clinical sample)
Description: as §1

[4] = tested on: Aspergillus fumigatus TR46/Y121F/T289A (azole resistant)
Description: as §1

[5] = tested on: Aspergillus fumigatus ATCC 204305 (wild type)
Description: as §1

[6] = Aspergillus fumigatus TR34/L98H
[7] = Aspergillus fumigatus TR46/Y121F/T289A

Structure (SMILES) | MIC ([1]; read-out: MIC) [µg/mL] | MIC ([2]; Aspergillus fumigatus) [µg/mL] | MIC ([3]; read-out: MIC) [µg/mL] | MIC ([4]; Aspergillus fumigatus) [µg/mL] | MIC ([5]; ATCC204305, read-out: MIC) [µg/mL] | MIC [1] [µg/mL] | MIC [2, 6] [µg/mL] | MIC [3] [µg/mL] | MIC [4, 7] [µg/mL] | MIC [5] [µg/mL]
C[C@@H]1C/C=C/C=C/C=C/C=C/[C@H](O[C@@H]2O[C@H](C)[C@@H](O)[C@H](N)[C@@H]2O)C[C@@H]2O[C@](O)(C[C@@H](O)C[C@H]3O[C@@H]3/C=C/C(=O)O1)C[C@H](O)[C@H]2C(=O)O [Natamycin] | 4 (≈ 6.01 µM) | 4 (≈ 6.01 µM) | 2 (≈ 3 µM) | 2 (≈ 3 µM) | 4 (≈ 6.01 µM) |  |  |  |  | 
CN(C/C=C/C#CC(C)(C)C)Cc1cccc2ccccc12 [Terbinafin] |  |  |  |  |  | 1 (≈ 3.43 µM) | 4 (≈ 13.7 µM) | >16 | 2 (≈ 6.86 µM) | 2 (≈ 6.86 µM)
C[C@@H](c1ncncc1F)[C@](O)(Cn1cncn1)c1ccc(F)cc1F [Voriconazol] | 4 (≈ 11.5 µM) | 4 (≈ 11.5 µM) | 0.25 (≈ 0.716 µM) | > 16 | 0.5 (≈ 1.43 µM) |  |  |  |  | 
CCC(C)n1ncn(-c2ccc(N3CCN(c4ccc(OCC5COC(Cn6cncn6)(c6ccc(Cl)cc6Cl)O5)cc4)CC3)cc2)c1=O (stereo not shown) [Itraconazol] | > 8 | > 8 | 0.25 (≈ 0.354 µM) | 1 (≈ 1.42 µM) |  |  |  |  |  | 0.125 (≈ 0.177 µM)
C[C@@H]1[C@H](O)[C@@H](C)/C=C/C=C/C=C/C=C/C=C/C=C/C=C/[C@H](O[C@@H]2O[C@H](C)[C@@H](O)[C@H](N)[C@@H]2O)C[C@@H]2O[C@](O)(C[C@@H](O)C[C@@H](O)[C@H](O)CC[C@@H](O)C[C@@H](O)CC(=O)O[C@H]1C)C[C@H](O)[C@H]2C(=O)O [Amphotericin B] |  |  |  |  |  | 1 (≈ 1.08 µM) | 0.25 (≈ 0.271 µM) | 4 (≈ 4.33 µM) | 0.25 (≈ 0.271 µM) | 0.25 (≈ 0.271 µM)
